Structures can show the parent of a compound that is named as a salt.
Experiments:
human αvβ3 receptor = human αvβ3 receptor (Homo sapiens, UniProt P05106+P06756); assay: Displacement of the binding Vitronectin/Vitronectin receptor (αvβ3), competition test; settings: human vitronectin coated plates, 3 hours at ambient temperature, read-out: Competition test Vn/VR (αvβ3) binding IC50 en
Experimental: 1—Study of the Products of the Invention on the Displacement of the Binding: Vitronectin/Vitronectin Receptor (αvβ3) […]
MaxiSorp 96-well plates are coated overnight at 4° C., with 100 μl of human Vitronectin (cf Yatohgo et al. Cell., Structure and fraction 13: 281-292 (1988)) at 2 μg/ml, (Dilution in coating buffer).
The next day, the wells are emptied and the ligands (Vitronectin) are then fixed (see fixing buffer) for one hour at ambient temperature under gentle agitation.
The wells are washed six times (see washing buffer), then the following are added to each well and in this order:
40 μl of incubation buffer, 10 μl of the dilution of the product to be tested, (the products are diluted in a 50/50 mixture of DMSO-H2O) 50 μl of human αvβ3 receptor (cf Pytela et al. Methods Enzymol (1987) 144:475) (dilution in incubation buffer, to be adapted according to the receptor batch and according to the ligand).
The ligand, the human αvβ3 receptor and the products to be studied are incubated for 3 hours at ambient temperature under gentle agitation.
The wells are again washed six times, then incubated for 2 hours at ambient temperature under gentle agitation, in the presence of 100 μl of anti-receptor, 4B12-HRP antibody coupled to a peroxidase (the 4B12-HRP antibody is diluted in an incubation buffer. The dilution is to be adapted according to the receptor batch).
This kit contains a bottle A of substrate (3,3′,5,5′-tetramethylbenzidine at 0.4 g/l) and a bottle B (H2O2 at 0.02% in a citrate/citric acid buffer). Extemporaneously, a volume of A is mixed with a volume of B, then the reaction mixture is distributed at a rate of 100 μl/well. The enzymatic reaction develops over […] for Vitronectin/αvβ3, then its development is stopped by the addition of 100 μl of 1M phosphoric acid. The optical density is measured at 450 nm. […]
coating buffer: Carbonate 0.05 M, NaOH pH 9.6 fixing buffer: PBS containing 0.5% BSA (pH 7.4) washing buffer: PBS containing 0.05% Tween 20 (pH 7.4)
Expression of the Results:
The following curve is traced: the percentage of binding of the human vitronectin as a function of the logarithm of the concentration of each product tested.
For each product the IC50 is determined according to the following formula:
BO=Maximum binding in the absence of any product
Bmin=Minimum binding in the presence of the highest concentration of product.

[1] = tested on: bone resorption (skullcaps of new-born mice); assay: Test of mouse calvarium: bone resorption by release of 45Ca from skullcaps of new-born mice, ex-vivo; settings: inhibition of bone resorption (45Ca release) in half-calvaria, 48 hours contact; for inhibition at 10 µM: Mus musculus, read-out: Mouse cavarium % inhibition at 10 μM
Description: 2—Test of Mouse Calvarium
Injection of a tracer dose of ^45Ca (CaCl2) to gestating female mice in order to study bone resorption by measuring the release of ^45Ca from the skullcaps of new-born mice.
Determination of the activity of a molecule on bone resorption, ex-vivo study.
Vehicle: DMSO, H2O/BSA (0.1%)
Dose: Variable ([…] in screening).
Echistatin (ref. H-9010-BACHEM)
^45Ca in the form of an aqueous solution of CaCl2—ref. CES3 AMERSHAM or NEZ-013 NEN.
Vehicle: Physiological serum
Dose: 25 μCi/mouse/0.4 ml
CMRL 1066 with phenol red (ref. 041-01535 M/GIBCO) supplemented by 0.1% BSA and penicillin/streptomycin.
1) Injection of ^45Ca to Gestating Mice (OF1, Strain: Swiss)
a) Preparation of the Labelled Solution:
190 μl of the mother solution of calcium at 2 mci/ml is added to 6 ml of physiological serum.
On the 17th day of gestation the mice receive 400 μl of this solution by intravenous route, that is 25 μCi/mouse.
2) Removal of the Tissue (Skullcap (Calvarium))
Six days after their birth the new-born mice are decapitated, then the head is recovered, and the skin is incised from the nape to the front. The skullcap is removed by cutting it out with scissors, and using a punch two exactly identical half-calvaria (one on the left and one on the right) are cut from the parietal bones. One will serve as the control, the other will be used to test the product to be studied.
Each half calvarium is placed in a well of a 24-well plate, containing 1 ml of medium, on a 100 μm polyethylene and nylex support, in order to avoid all contact with the bottom of the well.
After 24 hours, the polyethylene supports carrying the calvaria are transferred into new 24-well plates containing 1 ml of fresh medium and the products to be tested or their solvents. 200 μl of medium from the first plates is removed from each well and a first count of the radioactivity is carried out (value A).
This change of medium allows all the mechanical stress associated with the removal to be eliminated.
48 hours after putting the tissues in contact with the studied products, 200 μl of medium is removed from each well and counted (value B), so as to determine the quantity of ^45Ca released from the medium during the so-called resorption phase.
The calvarium is then completely demineralized in 1 ml of 5% trichloracetic acid and after digestion, 200 μl is also removed and counted so as to determine the quantity of calcium remaining in the bone (value C). Expression of the results
A % of bone resorption is calculated for each half-calvarium (each well) in the following manner:
% bone resorption=dpm B/dpm (A+B+C)×100
The sum of dpm A+B+C represents the quantity of ^45Ca incorporated in each bone part on the day of removal.
In order to measure the effect of a product, the ratio of the percentage of bone resorption of the treated well and of the corresponding control well is calculated for each point. The value found called the resorption index is comprised between 0 and 1 if the product inhibits bone resorption and is >1 if the product potentializes it. The average of the 6 indices (since there are 6 points/group) of each product is then calculated which gives one index/product. If this index is subtracted from the value 1, the inhibitory power of the product is obtained, which can be expressed as a percentage.
Furthermore a statistical test (Student T-test) is carried out by comparing point/point the individual resorption indices.

Compound	IC50 (human αvβ3 receptor) [µM]	inhibition at 10 µM [1] [%]	Mouse cavarium % inhibition at 10 μM [1] [%]
O=C(O)CCCOc1ccc2c(c1)CCC(=NNC1=NCCN1)C1=C2CCC1 [EX. 21, 4-(4((4,5-Dihydro-1H-imidazolin-2-yl)hydrazono)-1,2,3,4,5,6-hexahydro-8-benz(e)azulenyl)oxy)-butanoic Acid]	0.037		
O=C(O)CCCOc1ccc2c(c1)C1=C(CCC1)C(=NNC1=NCCN1)CC2 [EX. 20, 4-((4((4,5-Dihydro-1H-imidazol-2-yl)hydrazono)-1,2,3,4,5,6-hexahydro-9-benz(e)azulenyl)oxy)-butanoic Acid]	0.079	11	
COc1c(OCCC(=O)O)cc2c(c1OC)C1=C(CCC1)C(=NNC1=NCCN1)CC2 [EX. 14, 3-(4((4,5-Dihydro-1H-imidazolin-2-yl)hydrazono)-9,10-dimethoxy-1,2,3,4,5,6-hexahydro-8-benz(e)azulenyl)oxy)-propanoic Acid]	0.75	14	
COc1c(OCC(=O)C(C)(C)CC(=O)O)cc2c(c1OC)C1=C(CCC1)C(=NNC1=NCCN1)CC2 [EX. 10, 5-(4((4,5-Dihydro-1H-imidazolin-2-yl)hydrazono)-9,10-dimethoxy-1,2,3,4,5,6-hexahydro-S-benz(e)azulenyl)oxy)-3,3-dimethyl-4-oxo-pentanoic Acid]	0.8	8	
4-((4-(((Amino)iminomethyl)hydrazono)-9,10-dimethoxy-1,2,3,4,5,6-hexahydrobenz(e)azulen-8-yl)oxy)-butanoic Acid [EX. 2]	0.45		19
4-((4-(((Amino)iminomethyl)hydrazono)-9,10-dimethoxy-1,2,3,4,5,6-hexahydrobenz(e)azulen-8-yl)oxy)-pentanoic Acid [EX. 3]	2.1		
COc1c(OCCCC(=O)O)cc2c(c1OC)C1=C(CCC1)C(=NNC1=NCCCN1)CC2 [EX. 12, 4-((9,10-Dimethoxy-4-((1,4,5,6-tetrahydro-2-pyrimidinyl)hydrazono)-1,2,3,4,5,6-hexahydro-8-benz(e)-azulenyl)oxy)-butanoic Acid]	0.35	12	
N=C(N)NN=C1CCc2cc(OCCCCC(=O)O)c3c(c2C2=C1CCC2)OCO3 [EX. 22, 5-((8-(((Amino)iminomethyl)hydrazono)-6,7,8,9,10,11-hexahydro-azuleno(5,6-d)-1,3-benzodioxol-4-yl)-oxy)-pentanoic Acid]	2.36		
COc1c(OCCCCCC(=O)O)cc2c(c1OC)C1=C(CCC1)C(=NNC1=NCCN1)CC2 [EX. 8, 6-(4((4,5-Dihydro-1H-imidazolin-2-yl)hydrazono)-9,10-dimethoxy-1,2,3,4,5,6-hexahydro-8-benz(e)azulenyl)oxy)-hexanoic Acid]	2.79		
COc1c(OCCCCC(=O)O)cc2c(c1OC)C1=C(CCC1)C(=NNC1=NCCN1)CC2 [EX. 6, 5-(9,10-dimethoxy-1,2,3,4,5,6-hexahydro-4-(4,5-dihydro-1H-imidazolin-2-yl)hydrazono)-8-benz(e)azulenyl)oxy)-pentanoic Acid]	0.11	7.5	
COc1c(OCCC(NC(=O)OCc2ccccc2)C(=O)O)cc2c(c1OC)C1=C(CCC1)C(=NNC1=NCCCN1)CC2 (racemic)	0.006	30	

More lines, main results first:

IC50 (human αvβ3 receptor) [µM]	Compound	inhibition at 10 µM [1] [%]	Mouse cavarium % inhibition at 10 μM [1] [%]
0.035	COc1c(OCCC(NC(=O)OCc2ccccc2)C(=O)O)cc2c(c1OC)C1=C(CCC1)C(=NNC1=NC3CCCCC3N1)CC2 (racemic) [EX. 32, O-[9,10-Dimethoxy1,2,3,4,5,6-hexahydro4-[(3a,4,5,6,7,7a-hexahydro1H-benzimidazol-2-yl)hydrazono]8-benz(e)azulenyl]N-[(phenylmethoxy)carbonyl]DL-homoserine]		
0.17	COc1c(OCCC(NC(=O)OCc2ccccc2)C(=O)OCC(O)CO)cc2c(c1OC)C1=C(CCC1)C(=NNC1=NCCCN1)CC2 (racemic) [EX. 27, (2,3-Dihydroxypropyl) Ester of O-(9,10-Dimethoxy1,2,3,4,5,6-hexahydro 4-[(1,4,5,6-tetrahydro2-pyrimidinyl)hydrazono]-8-benz(e)azulenyl]N-[(phenylmethoxy)carbonyl]DL-homoserine.]		39
0.015	COc1c(OCCC(NS(=O)(=O)c2cccc3cccnc23)C(=O)O)cc2c(c1OC)C1=C(CCC1)C(=NNC1=NCCN1)CC2 (racemic) [EX. 28, O-[4-[(4,5-Dihydro1H-imidazol-2-yl)hydrazono]9,10-dimethoxy 1,2,3,4,5,6-hexahydro8-benz(e)azulenyl]N-[(8-quinolinyl)sulphonyl]DL-homoserine]	27	
0.055	COc1c(OCCC(NC(=O)OCc2ccccc2)C(=O)O)cc2c(c1OC)C1=C(CCC1)C(=NNC1=NCCCCN1)CC2 (racemic) [EX. 31, O-[9,10-Dimethoxy1,2,3,4,5,6-hexahydro4-[(4,5,6,7-tetrahydro1H-1,3-diazepin-2-yl)hydrazono]8-benz(e)azulenyl]N-[(phenylmethoxy)carbonyl]DL-homoserine]	20	
0.028	COc1c(OCCC(NC(=O)OCCCn2cnc(-c3cccnc3)c2)C(=O)O)cc2c(c1OC)C1=C(CCC1)C(=NNC1=NCCN1)CC2 (racemic) [EX. 29, Monohydrochloride of O-[4-[(4,5-Dihydro1H-imidazol-2-yl)hydrazono]9,10-dimethoxy1,2,3,4,5,6-hexahydro8-benz(e)azulenyl]N-[[3-[4-(3-pyridinyl)1H-imidazol-1-yl]propoxy]carbonyl]DL-homoserine]	18	
0.03	COc1c(OCCC(NC(=O)OCc2ccccc2)C(=O)O)cc2c(c1OC)C1=C(CCC1)C(=NNC1=NCCN1)CC2 (racemic) [EX. 24, O-[4-[(4,5-dihydro-1H-imidazol-2-yl)hydrazono)-9,10-dimethoxy-1,2,3,4,5,6-hexahydro-8-benz(e)azulenyl]-N-[(phenylmethoxy)carbonyl]-DL-homoserine]	18	
